Assay [1] deals with 621-102 (TSC2-deficient). As to the kind of experiment: relative viability vs DMSO; higher = less cytotoxic. The note with it: serum: 10% FBS, 72 h.
Assay [2] relates to 621-103 (TSC2-rescued). The description is as above. The conditions noted are these: serum: 10% FBS, 72 h.

We go through nine molecules from the supplement of paper PMC8960247.

Each structure is given as a SMILES string. ± gives the standard error.
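Further: immortalized renal angiomyolipoma cells stably carrying empty vector or TSC2, dosed in 384-well plates in DMEM, viability normalized to vehicle-treated wells within each plate.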

With `O=C(c1ccc(/C=C/c2n[nH]c3ccccc23)cc1)N1CCNCC1` [KW 2449], the relative viability in assay [1] (0.0001 µM) turned out to be 103 ± 1.6%; in assay [1] (0.001 µM), 92.5 ± 3.8%; in assay [1] (0.01 µM), 93.7 ± 0.96%; in assay [1] (0.1 µM), 94.1 ± 1.3%; in assay [1] (1 µM), 95.02 ± 0.93%; in assay [1] (10 µM), 37.58 ± 0.36%. In addition, the relative viability in assay [2] (0.0001 µM) turned out to be 102.2 ± 0.34%; in assay [2] (0.001 µM) it was 101.3 ± 0.97%; in assay [2] (0.01 µM), 101.8 ± 0.59%; in assay [2] (0.1 µM), 102 ± 1.6%; in assay [2] (1 µM), 96.784 ± 0.018%; in assay [2] (10 µM), 15.1 ± 0.84%.

Regarding `O=C(c1ccc(F)cc1)C1CCN(CCn2c(=O)[nH]c3ccccc3c2=O)CC1` [Ketanserin (Vulketan Gel)], the relative viability in assay [1] (0.0001 µM) is 89 ± 2.5%; in assay [1] (0.001 µM), 103 ± 2.1%; in assay [1] (0.01 µM) it was 98.4 ± 2%; in assay [1] (0.1 µM), 103.9 ± 0.64%; in assay [1] (1 µM), 92.4 ± 3.8%; in assay [1] (10 µM) it was 88.1 ± 1.1%. The relative viability in assay [2] (0.0001 µM) worked out at 113.6 ± 1.1%; in assay [2] (0.001 µM), 103 ± 2.4%; in assay [2] (0.01 µM) it was 102.89 ± 0.072%; in assay [2] (0.1 µM) it was 105.8 ± 0.41%; in assay [2] (1 µM) it was 107 ± 1.4%; in assay [2] (10 µM) it was 96.3 ± 1%.

With `O=C(c1ccccc1)c1ccc2n1CCC2C(=O)O` (stereo not drawn) [Ketorolac], the relative viability in assay [1] (0.0001 µM) worked out at 102 ± 1.8%; in assay [1] (0.001 µM), 102 ± 4.5%; in assay [1] (0.01 µM) it was 106 ± 2.7%; in assay [1] (0.1 µM), 109 ± 3.2%; in assay [1] (1 µM), 117 ± 4.6%; in assay [1] (10 µM) it was 94.8 ± 7.1%. Moreover, the relative viability was determined as 96.9 ± 1.1% in assay [2] (0.0001 µM); 121 ± 6.7% in assay [2] (0.001 µM); 128 ± 4% in assay [2] (0.01 µM); 112 ± 3.3% in assay [2] (0.1 µM); 98.25 ± 0.73% in assay [2] (1 µM); 108 ± 1.6% in assay [2] (10 µM).

With `CCCCCCCCCCCCCCCC(=O)OC[C@H](O)[C@H]1OC(=O)C(O)=C1O` [L-Ascorbyl 6-palmitate], the relative viability was found to be 122 ± 5.9% in assay [1] (0.0001 µM); 111 ± 2.5% in assay [1] (0.001 µM); 107 ± 3.4% in assay [1] (0.01 µM); 107 ± 1.8% in assay [1] (0.1 µM); 106.5 ± 0.81% in assay [1] (1 µM); 111 ± 2.4% in assay [1] (10 µM). Besides, the relative viability in assay [2] (0.0001 µM) was 99.8 ± 2.5%; in assay [2] (0.001 µM), 105.8 ± 0.61%; in assay [2] (0.01 µM), 96.5 ± 3.2%; in assay [2] (0.1 µM), 100 ± 2.4%; in assay [2] (1 µM), 97.4 ± 2.1%; in assay [2] (10 µM) it was 94.9 ± 5%.

Consider `Cc1[nH]c2ccccc2c1CCNCc1ccc(/C=C/C(=O)NO)cc1` [LBH-589 (Panobinostat)], for which the relative viability in assay [1] (0.0001 µM) came to 96.4 ± 2.3%; in assay [1] (0.001 µM), 86.7 ± 1.3%; in assay [1] (0.01 µM) it was 69.1 ± 3.1%; in assay [1] (0.1 µM) it was 41.28 ± 0.39%; in assay [1] (1 µM), 25.4 ± 1%; in assay [1] (10 µM) it was 11.9 ± 0.59%. Moreover, the relative viability in assay [2] (0.0001 µM) is 97.6 ± 1.1%; in assay [2] (0.001 µM), 85.6 ± 1.8%; in assay [2] (0.01 µM) it was 52.19 ± 0.31%; in assay [2] (0.1 µM) it was 4.57 ± 0.076%; in assay [2] (1 µM), 1.66 ± 0.2%; in assay [2] (10 µM), 1.1 ± 0.019%.

With `Cc1c(C(=O)Nc2ccc(N3C[C@@H](C)O[C@@H](C)C3)nc2)cccc1-c1ccc(OC(F)(F)F)cc1` [LDE225], the relative viability came out at 91.8 ± 6.5% in assay [1] (0.0001 µM); 106 ± 2.3% in assay [1] (0.001 µM); 116 ± 3.8% in assay [1] (0.01 µM); 120 ± 0.74% in assay [1] (0.1 µM); 115 ± 5.7% in assay [1] (1 µM); 81.9 ± 9.2% in assay [1] (10 µM). Also, the relative viability in assay [2] (0.0001 µM) was 92.8 ± 2.8%; in assay [2] (0.001 µM), 113 ± 7.7%; in assay [2] (0.01 µM), 112 ± 2.8%; in assay [2] (0.1 µM), 115.8 ± 0.72%; in assay [2] (1 µM) it was 116 ± 6.1%; in assay [2] (10 µM), 54.6 ± 1.5%.

Regarding `CS(=O)(=O)CCNCc1ccc(-c2ccc3ncnc(Nc4ccc(OCc5cccc(F)c5)c(Cl)c4)c3c2)o1` [Lapatinib Ditosylate], the relative viability in assay [1] (0.0001 µM) came to 102.2 ± 0.43%; in assay [1] (0.001 µM) it was 100 ± 1.8%; in assay [1] (0.01 µM), 110 ± 2.3%; in assay [1] (0.1 µM), 101.41 ± 0.072%; in assay [1] (1 µM), 103 ± 2.5%; in assay [1] (10 µM) it was 82.9 ± 3.4%. For the same molecule, the relative viability in assay [2] (0.0001 µM) worked out at 97.35 ± 0.2%; in assay [2] (0.001 µM) it was 96.4 ± 3.8%; in assay [2] (0.01 µM), 104 ± 1.5%; in assay [2] (0.1 µM), 101 ± 3.3%; in assay [2] (1 µM) it was 99.1 ± 4%; in assay [2] (10 µM), 48.9 ± 1.6%.

Turning to `Nc1cccc2c1CN(C1CCC(=O)NC1=O)C2=O` (stereo not drawn) [Lenalidomide], the relative viability worked out at 107 ± 2.9% in assay [1] (0.0001 µM); 115 ± 1.9% in assay [1] (0.001 µM); 113 ± 3% in assay [1] (0.01 µM); 112 ± 2.1% in assay [1] (0.1 µM); 109 ± 4.8% in assay [1] (1 µM); 98.472 ± 0.068% in assay [1] (10 µM). The relative viability worked out at 101 ± 1.6% in assay [2] (0.0001 µM); 98.8 ± 1% in assay [2] (0.001 µM); 100 ± 1.1% in assay [2] (0.01 µM); 100.4 ± 0.81% in assay [2] (0.1 µM); 100.5 ± 0.13% in assay [2] (1 µM); 98.62 ± 0.12% in assay [2] (10 µM).

For the molecule `N#Cc1ccc(C(c2ccc(C#N)cc2)n2cncn2)cc1` [Letrozole], the relative viability in assay [1] (0.0001 µM) was determined as 130 ± 1.9%; in assay [1] (0.001 µM) it was 114 ± 5.8%; in assay [1] (0.01 µM), 114 ± 0.22%; in assay [1] (0.1 µM), 104 ± 5%; in assay [1] (1 µM), 113.3 ± 0.22%; in assay [1] (10 µM), 111 ± 1.2%. Also, the relative viability in assay [2] (0.0001 µM) was 103 ± 1.7%; in assay [2] (0.001 µM), 105 ± 2%; in assay [2] (0.01 µM), 103.5 ± 0.86%; in assay [2] (0.1 µM) it was 99.5 ± 1%; in assay [2] (1 µM), 102.6 ± 0.18%; in assay [2] (10 µM), 101 ± 1.1%.
